The source of these data is patent publication US20260015358A1, “BICYCLIC DERIVATIVES, COMPOSITIONS AND USES THEREOF” (Danatlas Pharmaceuticals Co., Ltd., priority 2023, published 2026).

The target in test [1] is T1, WRN [UniPro: Q14191 (WRN_HUMAN), N500-C946] (Homo sapiens (Human), UniProt Q14191). Description: WRN ATPase assay (ADP-Glo). The conditions noted are these: WRN enzymatic activity assay. In kind it is biochemical. On the technique in general: ADP-Glo turns the ADP formed in a reaction into a luminescent signal.
T1 sequence (Q14191 500-946): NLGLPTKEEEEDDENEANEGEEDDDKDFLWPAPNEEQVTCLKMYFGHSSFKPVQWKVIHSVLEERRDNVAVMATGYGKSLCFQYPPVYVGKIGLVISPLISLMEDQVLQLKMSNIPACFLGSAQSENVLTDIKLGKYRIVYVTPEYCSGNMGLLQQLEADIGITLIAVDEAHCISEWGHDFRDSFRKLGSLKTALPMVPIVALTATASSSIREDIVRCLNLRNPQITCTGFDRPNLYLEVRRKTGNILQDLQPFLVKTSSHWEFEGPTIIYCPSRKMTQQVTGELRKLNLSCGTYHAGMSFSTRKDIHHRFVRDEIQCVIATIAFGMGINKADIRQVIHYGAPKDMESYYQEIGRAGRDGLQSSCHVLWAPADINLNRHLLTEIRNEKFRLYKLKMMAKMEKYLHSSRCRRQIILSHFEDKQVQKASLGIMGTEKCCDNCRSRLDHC
The target in test [2] is T1, WRN [UniPro: Q14191 (WRN_HUMAN), N500-C946]. Description: WRN unwinding assay (FORKF DNA, fluorescence). In kind it is biochemical. To be noted: Table 14.

Molecules are shown by their SMILES.

In general, IC50 refers to the point on the concentration scale where inhibition reaches its midpoint. A lower IC50 goes with greater potency in that assay.

For `CCc1c(N2CCN(C(=O)CNC(=O)Cc3ccccc3F)CC2)c(=O)n2nc(C3=CCOCC3)nc2n1CC(=O)Nc1ccc(C(F)(F)F)cc1Cl` [Example 274, N-(2-Chloro-4-(trifluoromethyl)phenyl)-2-(2-(3,6-dihydro-2H-pyran-4-yl)-5-ethyl-6-(4-((2-(2-fluorophenyl)acetyl)glycyl)piperazin-1-yl)-7-oxo-[1,2,4]triazolo[1,5-a]pyrimidin-4(7H)-yl)acetamide], the IC50 in test [1] and in test [2] was less than 100 nM throughout.
Regarding `CCc1c(N2CCN(C(=O)CNC(=O)CC3CC3)CC2)c(=O)n2nc(C3=CCOCC3)nc2n1CC(=O)Nc1ccc(C(F)(F)F)cc1Cl` [Example 275, N-(2-Chloro-4-(trifluoromethyl)phenyl)-2-(6-(4-((2-cyclopropylacetyl)glycyl)piperazin-1-yl)-2-(3,6-dihydro-2H-pyran-4-yl)-5-ethyl-7-oxo-[1,2,4]triazolo[1,5-a]pyrimidin-4(7H)-yl)acetamide], the IC50 in test [1] and in test [2] was less than 100 nM throughout.
Take `CCc1c(N2CCN(C(=O)CNC(=O)Cc3cscn3)CC2)c(=O)n2nc(C3=CCOCC3)nc2n1CC(=O)Nc1ccc(C(F)(F)F)cc1Cl` [Example 276, N-(2-Chloro-4-(trifluoromethyl)phenyl)-2-(2-(3,6-dihydro-2H-pyran-4-yl)-5-ethyl-7-oxo-6-(4-((2-(thiazol-4-yl)acetyl)glycyl)piperazin-1-yl)-[1,2,4]triazolo[1,5-a]pyrimidin-4(7H)-yl)acetamide]: the IC50 in test [1] and in test [2] was less than 100 nM each time.
Regarding `CCc1c(N2CCN(C(=O)CNC(=O)c3cccc(NC)c3)CC2)c(=O)n2nc(C3=CCOCC3)nc2n1CC(=O)Nc1ccc(C(F)(F)F)cc1Cl` [Example 277, N-(2-(4-(4-(2-((2-Chloro-4-(trifluoromethyl)phenyl)amino)-2-oxoethyl)-2-(3,6-dihydro-2H-pyran-4-yl)-5-ethyl-7-oxo-4,7-dihydro-[1,2,4]triazolo[1,5-a]pyrimidin-6-yl)piperazin-1-yl)-2-oxoethyl)-3-(methylamino)benzamide], the IC50 in test [1] and in test [2] was less than 100 nM throughout.
As to `CCc1c(N2CCN(C(=O)CNC(=O)c3cccc(NC(C)=O)c3)CC2)c(=O)n2nc(C3=CCOCC3)nc2n1CC(=O)Nc1ccc(C(F)(F)F)cc1Cl` [Example 278, 3-Acetamido-N-(2-(4-(4-(2-((2-chloro-4-(trifluoromethyl)phenyl)amino)-2-oxoethyl)-2-(3,6-dihydro-2H-pyran-4-yl)-5-ethyl-7-oxo-4,7-dihydro-[1,2,4]triazolo[1,5-a]pyrimidin-6-yl)piperazin-1-yl)-2-oxoethyl)benzamide], the IC50 in test [1] and in test [2] was less than 100 nM in each case.
For the compound `CCc1c(N2CCN(C(=O)CNC(=O)c3ccnc(O)c3)CC2)c(=O)n2nc(C3=CCOCC3)nc2n1CC(=O)Nc1ccc(C(F)(F)F)cc1Cl` [Example 279, N-(2-(4-(4-(2-((2-Chloro-4-(trifluoromethyl)phenyl)amino)-2-oxoethyl)-2-(3,6-dihydro-2H-pyran-4-yl)-5-ethyl-7-oxo-4,7-dihydro-[1,2,4]triazolo[1,5-a]pyrimidin-6-yl)piperazin-1-yl)-2-oxoethyl)-2-hydroxyisonicotinamide], the IC50 in test [1] and in test [2] was less than 100 nM in each case.
Take `CCc1c(N2CCN(C(=O)CNC(=O)c3cnccc3O)CC2)c(=O)n2nc(C3=CCOCC3)nc2n1CC(=O)Nc1ccc(C(F)(F)F)cc1Cl` [Example 280, N-(2-(4-(4-(2-((2-Chloro-4-(trifluoromethyl)phenyl)amino)-2-oxoethyl)-2-(3,6-dihydro-2H-pyran-4-yl)-5-ethyl-7-oxo-4,7-dihydro-[1,2,4]triazolo[1,5-a]pyrimidin-6-yl)piperazin-1-yl)-2-oxoethyl)-4-hydroxynicotinamide]: the IC50 in test [1] and in test [2] was less than 100 nM each time.
Consider `CCc1c(N2CCN(C(=O)CNC(=O)c3cncc(O)c3)CC2)c(=O)n2nc(C3=CCOCC3)nc2n1CC(=O)Nc1ccc(C(F)(F)F)cc1Cl` [Example 281, N-(2-(4-(4-(2-((2-Chloro-4-(trifluoromethyl)phenyl)amino)-2-oxoethyl)-2-(3,6-dihydro-2H-pyran-4-yl)-5-ethyl-7-oxo-4,7-dihydro-[1,2,4]triazolo[1,5-a]pyrimidin-6-yl)piperazin-1-yl)-2-oxoethyl)-5-hydroxynicotinamide], for which the IC50 in test [1] and in test [2] was less than 100 nM each time.
With `CCc1c(N2CCN(C(=O)CNC(=O)c3cccnc3O)CC2)c(=O)n2nc(C3=CCOCC3)nc2n1CC(=O)Nc1ccc(C(F)(F)F)cc1Cl` [Example 282, N-(2-(4-(4-(2-((2-Chloro-4-(trifluoromethyl)phenyl)amino)-2-oxoethyl)-2-(3,6-dihydro-2H-pyran-4-yl)-5-ethyl-7-oxo-4,7-dihydro-[1,2,4]triazolo[1,5-a]pyrimidin-6-yl)piperazin-1-yl)-2-oxoethyl)-2-hydroxynicotinamide], the IC50 in test [1] and in test [2] was less than 100 nM throughout.
`CCc1c(N2CCN(C(=O)CNC(=O)c3cn(C)[nH]c3=O)CC2)c(=O)n2nc(C3=CCOCC3)nc2n1CC(=O)Nc1ccc(C(F)(F)F)cc1Cl` [Example 283, N-(2-(4-(4-(2-((2-Chloro-4-(trifluoromethyl)phenyl)amino)-2-oxoethyl)-2-(3,6-dihydro-2H-pyran-4-yl)-5-ethyl-7-oxo-4,7-dihydro-[1,2,4]triazolo[1,5-a]pyrimidin-6-yl)piperazin-1-yl)-2-oxoethyl)-1-methyl-3-oxo-2,3-dihydro-1H-pyrazole-4-carboxamide]: the IC50 in test [1] was 100 to 1000 nM; in test [2], less than 100 nM.
As for `CCc1c(N2CCN(C(=O)CNC(=O)c3cc(F)cc(NC)c3)CC2)c(=O)n2nc(C3=CCOCC3)nc2n1CC(=O)Nc1ccc(C(F)(F)F)cc1Cl` [Example 284, N-(2-(4-(4-(2-((2-Chloro-4-(trifluoromethyl)phenyl)amino)-2-oxoethyl)-2-(3,6-dihydro-2H-pyran-4-yl)-5-ethyl-7-oxo-4,7-dihydro-[1,2,4]triazolo[1,5-a]pyrimidin-6-yl)piperazin-1-yl)-2-oxoethyl)-3-fluoro-5-(methylamino)benzamide], the IC50 in test [1] and in test [2] was less than 100 nM in each case.
Regarding `CCc1c(N2CCN(C(=O)CNC(=O)c3ccc(F)c(NC)c3)CC2)c(=O)n2nc(C3=CCOCC3)nc2n1CC(=O)Nc1ccc(C(F)(F)F)cc1Cl` [Example 285, N-(2-(4-(4-(2-((2-Chloro-4-(trifluoromethyl)phenyl)amino)-2-oxoethyl)-2-(3,6-dihydro-2H-pyran-4-yl)-5-ethyl-7-oxo-4,7-dihydro-[1,2,4]triazolo[1,5-a]pyrimidin-6-yl)piperazin-1-yl)-2-oxoethyl)-4-fluoro-3-(methylamino)benzamide], the IC50 in test [1] and in test [2] was less than 100 nM each time.
As to `CCc1c(N2CCN(C(=O)CNC(=O)c3ccc(F)c(N(C)C)c3)CC2)c(=O)n2nc(C3=CCOCC3)nc2n1CC(=O)Nc1ccc(C(F)(F)F)cc1Cl` [Example 286, N-(2-(4-(4-(2-((2-Chloro-4-(trifluoromethyl)phenyl)amino)-2-oxoethyl)-2-(3,6-dihydro-2H-pyran-4-yl)-5-ethyl-7-oxo-4,7-dihydro-[1,2,4]triazolo[1,5-a]pyrimidin-6-yl)piperazin-1-yl)-2-oxoethyl)-3-(dimethylamino)-4-fluorobenzamide], the IC50 in test [1] and in test [2] was less than 100 nM throughout.
